From PubChem BioAssay (NCI)
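A five-concentration, 48-hour dose response in 96-well plates underlies each endpoint, interpolated linearly between surrounding concentrations. The concentration for 50% growth inhibition is given as GI50. TGI: total growth inhibition.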

Assays:
Experiment in all cases: growth of human tumour cells (NCI), 48 h
OVCAR-8 ovarian = tested on: OVCAR-8 ovarian
HOP-92 NSCLC = tested on: HOP-92 NSCLC
SNB-75 CNS = tested on: SNB-75 CNS
MDA-MB-435 = tested on: MDA-MB-435
NCI-H522 lung = tested on: NCI-H522 lung
CCRF-CEM leukemia = tested on: CCRF-CEM leukemia
DU-145 prostate = tested on: DU-145 prostate
M14 melanoma = tested on: M14 melanoma
OVCAR-4 ovarian = tested on: OVCAR-4 ovarian
SK-OV-3 ovarian = tested on: SK-OV-3 ovarian
OVCAR-3 ovarian = tested on: OVCAR-3 ovarian
A498 renal = tested on: A498 renal
PC-3 prostate = tested on: PC-3 prostate
U251 CNS = tested on: U251 CNS
SW-620 colon = tested on: SW-620 colon
SF-295 CNS = tested on: SF-295 CNS
UACC-257 melanoma = tested on: UACC-257 melanoma
NCI-H226 lung = tested on: NCI-H226 lung
EKVX NSCLC = tested on: EKVX NSCLC
ACHN renal = tested on: ACHN renal
NCI/ADR-RES ovarian = tested on: NCI/ADR-RES ovarian
CAKI-1 renal = tested on: CAKI-1 renal
COLO 205 colon = tested on: COLO 205 colon
A549 NSCLC = tested on: A549 NSCLC
HCT-116 colon = tested on: HCT-116 colon
HT29 colon = tested on: HT29 colon
TK-10 renal = tested on: TK-10 renal
MDA-MB-231 breast = tested on: MDA-MB-231 breast
SF-539 CNS = tested on: SF-539 CNS
HL-60(TB) leukemia = tested on: HL-60(TB) leukemia
HOP-62 NSCLC = tested on: HOP-62 NSCLC
UO-31 renal = tested on: UO-31 renal
SN12C renal = tested on: SN12C renal
HCT-15 colon = tested on: HCT-15 colon
786-0 renal = tested on: 786-0 renal
SK-MEL-5 melanoma = tested on: SK-MEL-5 melanoma
MCF7 breast = tested on: MCF7 breast
NCI-H23 lung = tested on: NCI-H23 lung
BT-549 breast = tested on: BT-549 breast
SK-MEL-2 melanoma = tested on: SK-MEL-2 melanoma
NCI-H460 lung = tested on: NCI-H460 lung
OVCAR-5 ovarian = tested on: OVCAR-5 ovarian
RPMI-8226 leukemia = tested on: RPMI-8226 leukemia
HS 578T breast = tested on: HS 578T breast
SNB-19 CNS = tested on: SNB-19 CNS
SK-MEL-28 melanoma = tested on: SK-MEL-28 melanoma
SF-268 CNS = tested on: SF-268 CNS
MOLT-4 leukemia = tested on: MOLT-4 leukemia
KM12 colon = tested on: KM12 colon
HCC-2998 colon = tested on: HCC-2998 colon
T-47D breast = tested on: T-47D breast
MALME-3M melanoma = tested on: MALME-3M melanoma
K-562 leukemia = tested on: K-562 leukemia
SR leukemia = tested on: SR leukemia
RXF 393 renal = tested on: RXF 393 renal
LOX IMVI melanoma = tested on: LOX IMVI melanoma
UACC-62 melanoma = tested on: UACC-62 melanoma
IGROV1 ovarian = tested on: IGROV1 ovarian

CC1=C(CN(O)C(N)=O)C2=C(C)C3(CC3)[C@](C)(O)C(=O)C2=C1
GI50 (OVCAR-8 ovarian): 0.634 µM | TGI (OVCAR-8 ovarian): > 100 µM | GI50 (HOP-92 NSCLC): 1.08 µM | TGI (HOP-92 NSCLC): 4.21 µM | GI50 (SNB-75 CNS): 1.28 µM | TGI (SNB-75 CNS): 3.39 µM | GI50 (MDA-MB-435): 0.382 µM | TGI (MDA-MB-435): 1.43 µM | GI50 (NCI-H522 lung): 0.721 µM | TGI (NCI-H522 lung): 4.6 µM | GI50 (CCRF-CEM leukemia): 2.22 µM | TGI (CCRF-CEM leukemia): > 100 µM | GI50 (DU-145 prostate): 0.452 µM | TGI (DU-145 prostate): 26 µM | GI50 (M14 melanoma): 0.819 µM | TGI (M14 melanoma): 2.96 µM | GI50 (OVCAR-4 ovarian): 1.79 µM | TGI (OVCAR-4 ovarian): 9.19 µM | GI50 (SK-OV-3 ovarian): 2.62 µM | TGI (SK-OV-3 ovarian): 9.96 µM | GI50 (OVCAR-3 ovarian): 0.557 µM | TGI (OVCAR-3 ovarian): 4.15 µM | GI50 (A498 renal): 1.35 µM | TGI (A498 renal): 3.25 µM | GI50 (PC-3 prostate): 1.46 µM | TGI (PC-3 prostate): 11.5 µM | GI50 (U251 CNS): 3.47 µM | TGI (U251 CNS): > 100 µM | GI50 (SW-620 colon): 1.08 µM | TGI (SW-620 colon): > 100 µM | GI50 (SF-295 CNS): 0.789 µM | TGI (SF-295 CNS): > 100 µM | GI50 (UACC-257 melanoma): 3.02 µM | TGI (UACC-257 melanoma): 31.3 µM | GI50 (NCI-H226 lung): 2.03 µM | TGI (NCI-H226 lung): 6.36 µM | GI50 (EKVX NSCLC): 2.34 µM | TGI (EKVX NSCLC): 6.85 µM | GI50 (ACHN renal): 1.13 µM | TGI (ACHN renal): 8.69 µM | GI50 (NCI/ADR-RES ovarian): 2 µM | TGI (NCI/ADR-RES ovarian): 31.2 µM | GI50 (CAKI-1 renal): 1.91 µM | TGI (CAKI-1 renal): > 100 µM | GI50 (COLO 205 colon): 0.753 µM | TGI (COLO 205 colon): 4.58 µM | GI50 (A549 NSCLC): 3.03 µM | TGI (A549 NSCLC): > 100 µM | GI50 (HCT-116 colon): 1.39 µM | GI50 (HT29 colon): 0.412 µM | TGI (HT29 colon): 13.9 µM | GI50 (TK-10 renal): 2.01 µM | TGI (TK-10 renal): 8.02 µM | GI50 (MDA-MB-231 breast): 1.11 µM | TGI (MDA-MB-231 breast): 5.88 µM | GI50 (SF-539 CNS): 2.08 µM | TGI (SF-539 CNS): 6.38 µM | GI50 (HL-60(TB) leukemia): 0.952 µM | TGI (HL-60(TB) leukemia): > 100 µM | GI50 (HOP-62 NSCLC): 1.85 µM | TGI (HOP-62 NSCLC): 58.7 µM | GI50 (UO-31 renal): 0.254 µM | TGI (UO-31 renal): 0.83 µM | GI50 (SN12C renal): 2.62 µM | TGI (SN12C renal): > 100 µM | GI50 (HCT-15 colon): 1.29 µM | TGI (HCT-15 colon): 24.8 µM | GI50 (786-0 renal): 2.36 µM | TGI (786-0 renal): 15.5 µM | GI50 (SK-MEL-5 melanoma): 5.61 µM | TGI (SK-MEL-5 melanoma): 18.5 µM | GI50 (MCF7 breast): 0.366 µM | TGI (MCF7 breast): > 100 µM | GI50 (NCI-H23 lung): 2.28 µM | TGI (NCI-H23 lung): 9.83 µM | GI50 (BT-549 breast): 1.18 µM | TGI (BT-549 breast): 3.18 µM | GI50 (SK-MEL-2 melanoma): 2.11 µM | TGI (SK-MEL-2 melanoma): 4.85 µM | GI50 (NCI-H460 lung): 2.55 µM | TGI (NCI-H460 lung): > 100 µM | GI50 (OVCAR-5 ovarian): 0.374 µM | TGI (OVCAR-5 ovarian): 5.07 µM | GI50 (RPMI-8226 leukemia): 0.348 µM | TGI (RPMI-8226 leukemia): 2.67 µM | GI50 (HS 578T breast): 2.63 µM | TGI (HS 578T breast): 9.16 µM | GI50 (SNB-19 CNS): 2.58 µM | TGI (SNB-19 CNS): > 100 µM | GI50 (SK-MEL-28 melanoma): 0.732 µM | TGI (SK-MEL-28 melanoma): 3 µM | GI50 (SF-268 CNS): 1.72 µM | TGI (SF-268 CNS): > 100 µM | GI50 (MOLT-4 leukemia): 9.02 µM | TGI (MOLT-4 leukemia): > 100 µM | GI50 (KM12 colon): 0.798 µM | TGI (KM12 colon): 11.5 µM | GI50 (HCC-2998 colon): 0.219 µM | TGI (HCC-2998 colon): 0.54 µM | GI50 (T-47D breast): 0.992 µM | TGI (T-47D breast): > 100 µM | GI50 (MALME-3M melanoma): 1.83 µM | TGI (MALME-3M melanoma): 3.88 µM | GI50 (K-562 leukemia): 1.39 µM | TGI (K-562 leukemia): > 100 µM | GI50 (SR leukemia): 0.896 µM | TGI (SR leukemia): > 100 µM | GI50 (RXF 393 renal): 0.328 µM | TGI (RXF 393 renal): 1.19 µM | GI50 (LOX IMVI melanoma): 6.38 µM | TGI (LOX IMVI melanoma): 36.6 µM | GI50 (UACC-62 melanoma): 1.29 µM | TGI (UACC-62 melanoma): 3.06 µM | GI50 (IGROV1 ovarian): 2.24 µM | TGI (IGROV1 ovarian): 6.38 µM
